What is called LD50 is the dose expected to kill half of the subjects tested. Low readings indicate a more toxic substance, high ones a less toxic substance. As usually defined, the inhibition in vivo is the drop in the measured response relative to a control, in per cent. Higher therefore signals a response far below the control.

24 molecules from patent US4556737A, “Sulfonium compounds, processes for preparing the compounds and pharmacological composiitons containing the same” (Taiho Pharmaceutical Company Limited, priority 1983, dated 1985) can be followed below.

One data set can be described thus: Acute toxicity test. The following applies: mouse, in vivo, ip; male ddy mice, intraperitoneal, solution in physiological saline, up-down method. On the procedure: Male ddy mice weighing about 20 g were used. A solution of the compound in physiological saline was injected intraperitoneally. The dose lethal to 50% of mice was determined by the up-down method.

For data set [1], the system named is passive cutaneous anaphylaxis (PCA). In words: Effect on passive cutaneous anaphylaxis (PCA). The format is in vivo, male Wister rats. The following applies: 1 hour prior to antigen challenge, rat. How it is done: (1) Effect on passive cutaneous anaphylaxis (PCA)
A serum containing the homocytotropic antibody was intracutaneously injected at four points of the shaven back of the male Wister rats weighing 180 to 200 g. Fourty-eight hours after the injection, a physiological saline containing 2.0 mg of DNP-As and 2.5 mg of Evans Blue to induce response, and the rats were dehematized to death in 30 minutes. […] The present compounds were administered to the rats 1 hour prior to the antigen challenge.

The molecule `C[S+](C)CCOc1cccc(OCC(O)CO)c1` (centres unmarked) [Compound 42] gave an LD50 in the data set “Acute toxicity test” of 231 mg/kg. In data set [1], this molecule displayed an inhibition in vivo at 200 mg/kg of 58.4%. On to `C[S+](C)CCOc1ccc(OCC(COC(=O)c2ccccc2)OC(=O)c2ccccc2)cc1` (centres unmarked) [Compound 56], for which the LD50 in the data set “Acute toxicity test” was 85 mg/kg. The inhibition in vivo at 100 mg/kg in data set [1] is 44.7%.

For `C[S+](C)CCOc1ccc(OCC(O)COCC2CCCO2)cc1` (centres unmarked) [Compound 49], the 50% lethal dose (LD50) in “Acute toxicity test” was determined as 221 mg/kg. Further, 20 mg/kg produced 42.5% inhibition in vivo in data set [1].

Regarding `CCOCC(O)COc1ccc(NC(=O)CC[S+](C)C)cc1` (centres unmarked) [Compound 8], the LD50 in the data set “Acute toxicity test” is 254 mg/kg. The molecule further had an inhibition in vivo at 20 mg/kg in data set [1] of 57%. With `COCC(O)COc1ccc(NC(=O)CC[S+](C)C)cc1.Cc1ccc(S(=O)(=O)[O-])cc1` (centres unmarked) [Compound 7, 2-{4-(2-hydroxy-3-methoxypropoxy)phenylcarbamoyl}ethyldimethylsulfonium p-toluenesulfonate], the LD50 in “Acute toxicity test” worked out at 359 mg/kg. This molecule showed an inhibition in vivo at 100 mg/kg in data set [1] of 57%. As to `CCOCC(COc1ccc(NC(=O)CC[S+](C)C)cc1)OCC` (centres unmarked) [Compound 20], in “Acute toxicity test”, the LD50 turned out to be 179 mg/kg. Besides, in data set [1], the inhibition in vivo at 50 mg/kg stood at 35.1%.

The molecule `CCOCC(COc1ccc(OCC[S+](C)C)cc1)OCC` (centres unmarked) [Compound 52] had an LD50 in the data set “Acute toxicity test” of 132 mg/kg. In addition, testing at 100 mg/kg in data set [1] gave an inhibition in vivo of 53.3%. `COCC(COc1ccc(NC(=O)CC[S+](C)C)cc1)OC` (centres unmarked) [Compound 19] came in with an LD50 in “Acute toxicity test” of 254 mg/kg. Also, in data set [1], at 10 mg/kg the inhibition in vivo was 51.6%. On to `CCCOCC(O)COc1ccc(NC(=O)CC[S+](C)C)cc1` (centres unmarked) [Compound 10], for which the LD50 in “Acute toxicity test” came to 171 mg/kg. Moreover, in data set [1], at 100 mg/kg the inhibition in vivo was 47%. In turn, `CCOCCOCC(O)COc1ccc(OCC[S+](C)C)cc1` (centres unmarked) [Compound 48] came in with an LD50 in the data set “Acute toxicity test” of 302 mg/kg. In addition, the inhibition in vivo at 20 mg/kg in data set [1] came out at 48%. In “Acute toxicity test”, `CC(=O)OCC(COc1ccc(OCC[S+](C)C)cc1)OC(C)=O` (centres unmarked) [Compound 55] displayed an LD50 of 291 mg/kg. Also, in data set [1], the inhibition in vivo at 50 mg/kg worked out at 55.2%.

In turn, `C[S+](C)CCC(=O)Nc1ccc(OCC(O)COC2CCCCC2)cc1` (centres unmarked) [Compound 17] showed an LD50 in the data set “Acute toxicity test” of 93.6 mg/kg. The molecule further showed an inhibition in vivo at 100 mg/kg in data set [1] of 47%. In “Acute toxicity test”, `C[S+](C)CCOc1ccc(OCC(O)COC(N)=O)cc1` (centres unmarked) [Compound 54] had an LD50 of 327 mg/kg. In data set [1], this molecule registered an inhibition in vivo at 20 mg/kg of 51.8%.

In “Acute toxicity test”, `C[S+](C)CCOc1ccc(OCC(O)COc2ccccc2)cc1.Cc1ccc(S(=O)(=O)[O-])cc1` (centres unmarked) [Compound 51, 2-{4-(2-hydroxy-3-phenoxypropoxy)phenoxy}ethyldimethylsulfonium p-toluenesulfonate] showed an LD50 of 150 mg/kg. The molecule further registered an inhibition in vivo at 100 mg/kg in data set [1] of 56.7%. In data set [1], `CCOCC(O)COc1ccc(OCC[S+](C)C)cc1` (centres unmarked) [Compound 46] returned an inhibition in vivo at 100 mg/kg of 64.8%. In turn, `CCCOCC(COc1ccc(NC(=O)CC[S+](C)C)cc1)OCCC` (centres unmarked) [Compound 29] gave an LD50 in “Acute toxicity test” of 75.2 mg/kg. Also, the inhibition in vivo at 50 mg/kg in data set [1] came out at 46.2%. Molecule `C[S+](C)CCOc1ccccc1OCC(O)CO.Cc1ccc(S(=O)(=O)[O-])cc1` (centres unmarked) [Compound 40, 2-{2-(2,3-dihydroxypropoxy)phenoxy}ethyldimethylsulfonium p-toluenesulfonate] gave an LD50 in the data set “Acute toxicity test” of 283 mg/kg. The same molecule registered an inhibition in vivo at 200 mg/kg in data set [1] of 53.2%. For `C[S+](C)CCOc1ccc(OCC(O)CO)cc1` (centres unmarked) [Compound 44], in that order: 352 mg/kg and 57%. For the molecule `CC(=O)OCC(COc1ccc(NC(=O)CC[S+](C)C)cc1)OC(C)=O` (centres unmarked) [Compound 32], in “Acute toxicity test”, the LD50 is 366 mg/kg. For the same molecule, testing at 10 mg/kg in data set [1] gave an inhibition in vivo of 47%.

In the data set “Acute toxicity test”, `C[S+](C)CCC(=O)Nc1ccc(OCC(O)CO)cc1.Cc1ccc(S(=O)(=O)[O-])cc1` (centres unmarked) [Compound 4, 2-{4-(2,3-dihydroxypropoxy)phenylcarbamoyl}ethyldimethylsulfonium p-toluenesulfonate] displayed an LD50 of 1040 mg/kg. In data set [1], the inhibition in vivo at 50 mg/kg is 48.8%. In the case of `CCOCC(COc1ccc(NC(=O)CC[S+](C)C)cc1)OC(C)=O` (centres unmarked) [Compound 25], the LD50 in “Acute toxicity test” came out at 233 mg/kg. Also, 100 mg/kg produced 63.6% inhibition in vivo in data set [1].

In “Acute toxicity test”, `COCC(O)COc1ccc(OCC[S+](C)C)cc1.Cc1ccc(S(=O)(=O)[O-])cc1` (centres unmarked) [Compound 45, 2-{4-(2-hydroxy-3-methoxypropoxy)phenoxy}ethyldimethylsulfonium p-toluenesulfonate] showed an LD50 of 302 mg/kg. The inhibition in vivo at 200 mg/kg in data set [1] worked out at 59%. With `C[S+](C)CCC(=O)Nc1ccc(OCC(O)COc2ccccc2)cc1` (centres unmarked) [Compound 18], the LD50 in “Acute toxicity test” stood at 112 mg/kg. Moreover, in data set [1], 100 mg/kg produced 34% inhibition in vivo. Turning to `CCCOCC(O)COc1ccc(OCC[S+](C)C)cc1` (centres unmarked) [Compound 47], the LD50 in the data set “Acute toxicity test” turned out to be 293 mg/kg. The same molecule yielded an inhibition in vivo at 50 mg/kg in data set [1] of 39.2%.
